Experimental data from patent publication US20140329776A1, “Mitochondria-Targeted Antioxidants for Treatment of Age-Related Brain Disorders” (MITOTECH S.A., priority 2011, published 2014).

Key:
[1] = tested on: hippocampal slice neurons; assay: long-term potentiation (LTP) of hippocampal slices treated with Aβ after in vivo treatment; design: species or system rat; details: for neuroprotective activity based on LTP signal, model of Alzheimer disease: administered in vivo to rats prior to extraction of hippocampus, beta-amyloid treatment
Experimental: FIG. 3B is a graphic representation showing the LTP caused by in vitro addition of Aβ, where the decay of LTP of hippocampal slice neurons characterized by a decrease of pop-spike amplitude (%) in a hippocampal slice treated with Aβ.
SkQR1 Aβ was added 15 min before the LTP induction with high-frequency electric stimulation (arrow). The decay of LTP (i.e. decrease of pop-spike amplitude) in a hippocampal slice treated with Aβ can be prevented by SkQR1 treatment.
FIG. 16 is a bar graph comparing the neuroprotective effects of preferred SkQ mitochondria-targeted antioxidants of the invention when administered in vivo in a model of Alzheimer disease.
As a model of cell memory, an electric response of a hippocampal slice (long-term potentiation, LTP) was used (Malenka, et al., Science 285:1870-1874 (1999)). A direct experiment was performed showing the prevention of Aβ toxicity in hippocampus by in vivo treatment of rats with 1 μmol SkQR1 per kg of body weight. The compound was injected intraperitoneally into the animal 24 hours before hippocampal slices were obtained to measure LTP. Some slices were pretreated with Aβ for 15 minutes. As is seen in FIG. 3B, Aβ impaired LTP relative to untreated control.
FIG. 16 provides a comparison of the neuroprotective effects of SkQ1, SkQR1 and C12TPP based on the LTP signal in neurons of hippocampal slices. Ab stands for beta-amyloid treatment. […] All SkQs and C12TPP were administered in vivo to rats prior the extraction of hippocampus.

mROS = details: in vivo; cited from earlier work
Wistar rats [2] = assay: limb-placing test after focal open severe brain trauma; format: in vivo, rat; details: 100 nmol/kg i.p. 1 h after trauma then daily for four days, 12-score scale, mean±SEM
Experimental: (§1) In this study, we, the inventors, employed our modification of the earlier used model of focal open severe brain trauma in rats. The study was performed on male Wistar rats with body weight of 180-250 g. Before the surgery, the animals were anesthetized by an intraperitoneal injection of 3% chloral hydrate (330 mg/kg). To create the trauma, the left frontal part of the skull was trepanized above the sensorimotor cortex zone, and a movable Teflon piston 4 mm in diameter with depth of insertion of 2.5 mm was placed into it; this piston was struck from the height of 10 cm with a 50-g load sliding along a directing rail. Localization of the sensorimotor cortex zone was determined based on data described in [14].
SkQR1 (100 nmol/kg) was injected intraperitoneally 1 h after the trauma and then daily in the same dose during the following four days.
Behavioral “limb-placing test” was performed 24 h before the operation and then on the third and seventh days after the trauma. […] The resulting score on this scale is determined as the sum of points obtained in six tests assessing the response of the forelimbs and hindlimbs to tactile and proprioceptive stimulation in the presence of obvious reflexes. […]
The results are expressed as the mean±standard error of mean. […] The statistical significance of differences in the damaged volumes was assessed using Student's t-test at the significance level of p<0.05.

[3] = tested on: rats after transient middle cerebral artery occlusion; assay: transient middle cerebral artery occlusion, brain infarct volume (TTC staining); format: in vivo, rat; details: single intraperitoneal injection 0.5-2 μmol/kg body weight; 24 h before 60 min occlusion; studied 24 h after occlusion
Experimental: Several effects of SkQs were observed when brain functions were studied. Where indicated, 1 μmol SkQR1 per kg of body weight was injected intraperitoneally 24 h before the 60 min occlusion of the artery. The ischemia effect was studied 24 h after the occlusion (Plotnikov, et al., Biochemistry (Mosc) 75:145-150 (2010) here and below, p<0.05 for SkQ effect).

[4] = tested on: rats after transient middle cerebral artery occlusion; assay: limb-placing test after transient middle cerebral artery occlusion; format: in vivo, rat; details: after injection of SkQR1; first day after induction of ischemia
Experimental: Behavioral tests were performed 1 day before the induction of ischemia and on the first day after the induction of ischemia. The limb-placing test was used to evaluate the neurological deficit estimated by a conventional 14-point scale with modifications as described in Jolkkonen, et al., Eur. J. Pharmacol., 400:211-219 (2000)). The test had 7 limb-placing tasks that assess the sensorimotor integration of forelimb and hindlimb responses to tactile and proprioceptive stimulation.

[5] = tested on: hippocampal slice neurons; assay: LTP of hippocampal slices, nootropic activity; details: administered in vivo; FIG. 15
Description: FIG. 15 is a bar graph showing the nootropic activity of preferred SkQ mitochondria-targeted antioxidants of the invention when administered to animals in vivo.

Wistar rats [6] = assay: damaged focal volume (morphometry) after focal open severe brain trauma; format: in vivo, rat; details: seventh day after trauma; 100 nmol/kg i.p. 1 h after trauma then daily for four days; mean±SEM
Experimental: as §1, with “[14]. […]” for “[14].”
A magnetic resonance imaging (MRI) study was performed as described in [15] using a BioSpec 70/30 (Bruker, Germany) with magnetic field induction of 7 T and gradient of 105 mT/m. The damaged focal volume was determined morphometrically on the 7th day after the trauma. […] The volume of the lesion was determined as a cylinder with V=ΣSn×d, where d is thickness of the section pair (200 μm); Sn is the area of the lesion in the section in mm2; Σ is the sum of volumes of ischemic damage in the sections using an Image J program (Bethesda Md., USA).
The results are expressed as the mean±standard error of mean. […]

AD patients = details: human, in vivo; cited from earlier work

CCCCCCCCCCCC[P+](c1ccccc1)(c1ccccc1)c1ccccc1 [C12TPP]
neuroprotective activity compared to SkQ ([1]; FIG. 16): lower but still sufficient | neuroprotective activity based on LTP signal, model of Alzheimer disease ([1]; FIG. 16): neuroprotective activity

COC1=C(OC)C(=O)C(CCCCCCCCCC[P+](c2ccccc2)(c2ccccc2)c2ccccc2)=C(C)C1=O [MitoQ]
outcome of targeting the antioxidant to quench mROS (mROS): failed

CC/N=c1/cc2oc3cc(NCC)c(C)cc3c(-c3ccccc3C(=O)OCCCCCCCCCCC3=CC(=O)C(C)=C(C)C3=O)c-2cc1C [SkQR1, plastoquinonyl decylrhodamine 19]
limb-placing test score, right limbs (Wistar rats [2]; seventh day after trauma): 7.4±0.8 points | limb-placing test score, right limbs (Wistar rats [2]; third day after trauma): 6.6±0.8 points | infarct volume in brain [3]: strongly decreased | behavioral defects, limb-placing test [4]: decrease | LTP signal (nootropic activity) [5]: clearly stimulates LTP | neuroprotective activity based on LTP signal, model of Alzheimer disease ([1]; FIG. 16): neuroprotective activity | impairment (decay) of LTP caused by Aβ ([1]; in vivo treatment (SkQR1 1 μmol/kg i.p. 24 hours before slices), Aβ added to slices for 15 min): prevented such impairment | damaged volume (Wistar rats [6]): 15±4 mm3

O=C1O[C@H]([C@@H](O)CO)C(O)=C1O [ascorbate]
safety (AD patients): safe

O=C(O)CCCCC1CCSS1 (stereo not drawn) [α-lipoate]
efficacy in treating AD patients (AD patients): ineffective | safety (AD patients): safe

Cc1c(C)c2c(c(C)c1O)CC[C@@](C)(CCC[C@H](C)CCC[C@H](C)CCCC(C)C)O2 [α-tocopherol]
efficacy in treating AD patients (AD patients): ineffective | safety (AD patients): safe
